This note sets out measurements from ChEMBL document CHEMBL1201862, “PubChem BioAssay data set” (2004).

What all share (type): functional
Assay [1] deals with T1, Tyrosine-protein phosphatase non-receptor type 7 (Homo sapiens, UniProt P35236).
T1 sequence (P35236 whole entry): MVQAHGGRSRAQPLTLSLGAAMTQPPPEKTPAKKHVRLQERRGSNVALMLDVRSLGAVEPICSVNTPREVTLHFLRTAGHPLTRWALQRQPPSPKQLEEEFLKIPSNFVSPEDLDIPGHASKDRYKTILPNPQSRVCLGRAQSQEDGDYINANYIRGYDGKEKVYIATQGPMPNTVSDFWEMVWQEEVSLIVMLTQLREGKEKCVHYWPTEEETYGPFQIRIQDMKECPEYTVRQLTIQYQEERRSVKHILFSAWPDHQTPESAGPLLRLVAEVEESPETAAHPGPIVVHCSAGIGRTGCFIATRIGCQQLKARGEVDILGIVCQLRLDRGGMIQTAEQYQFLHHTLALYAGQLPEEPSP
As to the kind of experiment: SAR analysis of chemical inhibitors of HePTP using a Fluorescent assay - Set 2. [Related pubchem assays (depositor defined):AID1059, AID1077, AID1661, AID2085, AID521].

For assay [2], the target named is T2, Cannabinoid receptor 1 (Homo sapiens, UniProt P21554). As to the kind of experiment: SAR analysis of antagonists of the Cannabinoid Receptor 1 using an Image-Based Assay. [Related pubchem assays (depositor defined):AID1961, AID1965].
T2 sequence (P21554 whole entry): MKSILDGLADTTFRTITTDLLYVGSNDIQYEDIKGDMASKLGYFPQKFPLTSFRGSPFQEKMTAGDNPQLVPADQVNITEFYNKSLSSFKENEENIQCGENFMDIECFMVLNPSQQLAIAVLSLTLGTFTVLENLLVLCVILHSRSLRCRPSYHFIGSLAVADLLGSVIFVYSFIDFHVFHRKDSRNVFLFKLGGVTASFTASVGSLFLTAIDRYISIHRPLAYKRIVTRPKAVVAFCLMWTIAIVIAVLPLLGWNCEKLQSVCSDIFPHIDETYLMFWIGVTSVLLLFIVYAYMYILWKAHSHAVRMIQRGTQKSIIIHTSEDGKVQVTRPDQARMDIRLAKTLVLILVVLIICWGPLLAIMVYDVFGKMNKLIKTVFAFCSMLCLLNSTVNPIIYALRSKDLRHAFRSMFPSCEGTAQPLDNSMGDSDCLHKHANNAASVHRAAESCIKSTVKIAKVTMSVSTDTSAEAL
The target in assay [3] is T3, Cannabinoid receptor 2 (Homo sapiens, UniProt P34972). The assay can be described thus: SAR analysis of antagonists of the Cannabinoid Receptor 2 using an Image-Based Assay - Set 2. [Related pubchem assays (depositor defined):AID1961, AID1965].
T3 sequence (P34972 whole entry): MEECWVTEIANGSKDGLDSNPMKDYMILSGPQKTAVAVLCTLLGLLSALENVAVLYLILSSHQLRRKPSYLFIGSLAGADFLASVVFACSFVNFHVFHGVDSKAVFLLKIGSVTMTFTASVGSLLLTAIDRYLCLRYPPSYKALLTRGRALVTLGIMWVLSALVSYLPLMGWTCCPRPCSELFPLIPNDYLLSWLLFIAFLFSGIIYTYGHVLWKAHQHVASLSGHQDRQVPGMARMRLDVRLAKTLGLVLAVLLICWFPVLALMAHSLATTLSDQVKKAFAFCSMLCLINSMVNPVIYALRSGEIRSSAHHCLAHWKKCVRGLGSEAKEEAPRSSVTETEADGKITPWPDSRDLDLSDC
In assay [4] the target is T3, Cannabinoid receptor 2. The assay can be described thus: SAR analysis of agonists of the Cannabinoid Receptor 2 using an Image-Based Assay - Set 2. [Related pubchem assays (depositor defined):AID1961, AID1965].
The target of assay [5] is T4, G-protein coupled receptor 55 (Homo sapiens, UniProt Q9Y2T6). As to the kind of experiment: selective activators of receptor GPR55 – imaging, U2OS cells, beta-arrestin-GFP redistribution, primary screen (AID 1961).
T4 sequence (Q9Y2T6 whole entry): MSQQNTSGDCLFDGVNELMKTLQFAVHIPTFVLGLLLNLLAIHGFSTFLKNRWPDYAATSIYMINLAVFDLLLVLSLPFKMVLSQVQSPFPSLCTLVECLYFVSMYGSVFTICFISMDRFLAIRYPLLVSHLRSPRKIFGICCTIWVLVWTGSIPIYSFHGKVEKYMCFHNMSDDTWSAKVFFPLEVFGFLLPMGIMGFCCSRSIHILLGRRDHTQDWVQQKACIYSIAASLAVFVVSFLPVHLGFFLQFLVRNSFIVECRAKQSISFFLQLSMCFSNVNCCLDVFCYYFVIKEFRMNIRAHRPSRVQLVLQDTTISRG
In assay [6] the target is Dual specificity protein phosphatase 3 (Homo sapiens, UniProt P51452). The assay can be described thus: SAR VHR1 Fluorescent Assay for In Vitro dose response studies Set 2. [Related pubchem assays (depositor defined):AID1654, AID1661, AID1878].
Dual specificity protein phosphatase 3, sequence (P51452 whole entry): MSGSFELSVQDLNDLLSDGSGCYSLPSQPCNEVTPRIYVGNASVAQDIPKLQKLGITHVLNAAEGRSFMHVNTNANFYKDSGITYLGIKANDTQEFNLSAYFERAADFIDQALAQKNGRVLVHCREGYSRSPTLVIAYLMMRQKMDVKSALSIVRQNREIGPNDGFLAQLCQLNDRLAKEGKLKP
For assay [7], the target named is T4, G-protein coupled receptor 55. As to the kind of experiment: SAR analysis of selective Agonists of GPR55 using an Image-Based Assay. [Related pubchem assays (depositor defined):AID1961, AID1965].
Assay [8] deals with T3, Cannabinoid receptor 2. As to the kind of experiment: SAR analysis of antagonists of the Cannabinoid Receptor 2 using an Image-Based Assay - Set 3. [Related pubchem assays (depositor defined):AID2013, AID2026].
Assay [9] addresses T2, Cannabinoid receptor 1. As to the kind of experiment: SAR analysis of antagonists of the Cannabinoid Receptor 1 using an Image-Based Assay - Set 4. [Related pubchem assays (depositor defined):AID2013, AID2026].
Assay [10] addresses T5, G-protein coupled receptor 35 (Homo sapiens, UniProt Q9HC97). The assay can be described thus: SAR analysis of Antagonists of the GPR35 Receptor using an Image-Based Assay - Set 6. [Related pubchem assays (depositor defined):AID2013, AID2026].
In assay [11] the target is T5, G-protein coupled receptor 35. As to the kind of experiment: SAR analysis of Agonists of the GPR35 Receptor using an Image-Based Assay - Set 4. [Related pubchem assays (depositor defined):AID2013, AID2026].
Assay [12] concerns the target T2, Cannabinoid receptor 1. The assay can be described thus: SAR analysis of agonists of the Cannabinoid Receptor 1 using an Image-Based Assay - Set 4. [Related pubchem assays (depositor defined):AID2013, AID2026].
Assay [13] has as its target T3, Cannabinoid receptor 2. The assay can be described thus: SAR analysis of agonists of the Cannabinoid Receptor 2 using an Image-Based Assay - Set 3. [Related pubchem assays (depositor defined):AID2013, AID2026].
Assay [14] concerns the target T4, G-protein coupled receptor 55. As to the kind of experiment: SAR Analysis of Selective Antagonists of GPR55 using an Image-Based Assay - Set 4. [Related pubchem assays (depositor defined):AID2013, AID2026].
The target in assay [15] is T6, Dual specificity protein phosphatase 6 (Rattus norvegicus, UniProt Q64346).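 Note: confirmatory in vitro dose-response testing of MKP-3 inhibition; recombinant His-tagged MKP-3 made in E. coli BL21 with OMFP substrate.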
T6 sequence (Q64346 whole entry): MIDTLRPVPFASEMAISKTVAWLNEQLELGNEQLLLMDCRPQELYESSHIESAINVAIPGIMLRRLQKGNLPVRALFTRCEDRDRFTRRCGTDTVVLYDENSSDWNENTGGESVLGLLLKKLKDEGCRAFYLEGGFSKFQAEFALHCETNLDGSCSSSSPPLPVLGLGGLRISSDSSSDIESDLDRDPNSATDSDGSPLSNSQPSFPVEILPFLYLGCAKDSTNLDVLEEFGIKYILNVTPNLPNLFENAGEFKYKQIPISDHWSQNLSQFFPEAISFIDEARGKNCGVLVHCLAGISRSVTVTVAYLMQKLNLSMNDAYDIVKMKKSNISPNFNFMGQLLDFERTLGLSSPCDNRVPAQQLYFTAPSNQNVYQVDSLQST

The target in assay [16] is T7, Tyrosine-protein phosphatase non-receptor type 22 (Homo sapiens, UniProt Q9Y2R2).
T7 sequence (Q9Y2R2 whole entry): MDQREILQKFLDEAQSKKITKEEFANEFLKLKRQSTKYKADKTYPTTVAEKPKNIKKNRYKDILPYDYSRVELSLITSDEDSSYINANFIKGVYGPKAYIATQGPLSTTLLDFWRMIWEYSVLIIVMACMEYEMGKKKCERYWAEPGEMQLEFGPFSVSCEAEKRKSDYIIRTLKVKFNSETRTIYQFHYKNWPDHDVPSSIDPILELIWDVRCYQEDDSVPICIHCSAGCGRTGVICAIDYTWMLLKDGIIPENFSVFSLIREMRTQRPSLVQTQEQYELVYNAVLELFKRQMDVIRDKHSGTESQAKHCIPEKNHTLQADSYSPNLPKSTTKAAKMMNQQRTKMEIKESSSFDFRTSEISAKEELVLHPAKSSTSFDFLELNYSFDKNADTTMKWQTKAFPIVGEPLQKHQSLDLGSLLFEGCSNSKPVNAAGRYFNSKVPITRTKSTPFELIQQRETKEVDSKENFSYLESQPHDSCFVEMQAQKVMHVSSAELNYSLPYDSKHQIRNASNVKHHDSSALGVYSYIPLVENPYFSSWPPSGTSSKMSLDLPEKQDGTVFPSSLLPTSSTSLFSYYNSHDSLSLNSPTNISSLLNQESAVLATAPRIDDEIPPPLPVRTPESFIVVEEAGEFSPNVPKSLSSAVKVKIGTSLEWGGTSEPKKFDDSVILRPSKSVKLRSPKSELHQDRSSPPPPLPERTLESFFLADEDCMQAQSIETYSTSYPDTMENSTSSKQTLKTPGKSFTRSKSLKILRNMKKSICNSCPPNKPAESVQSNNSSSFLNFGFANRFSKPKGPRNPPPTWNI
As to the kind of experiment: inhibition of lymphoid tyrosine phosphatase LYP – biochemical, pCAP fluorogenic substrate, fluorescence, set 3, SAR follow-up (AID 449727).

Assay [17] concerns the target T1, Tyrosine-protein phosphatase non-receptor type 7. The assay can be described thus: redox-active compounds inhibiting HePTP phosphatase – biochemical, fluorescence, mechanism study (AID 2068).
In assay [18] the target is T7, Tyrosine-protein phosphatase non-receptor type 22. As to the kind of experiment: SAR LYP1 Fluorescent Assay using OMFP substrate for In Vitro dose response studies - Set 3. [Related pubchem assays (depositor defined):AID1779, AID1784, AID2140, AID2686].
In assay [19] the target is Tyrosine-protein phosphatase non-receptor type 12 (Homo sapiens, UniProt Q05209). As to the kind of experiment: SAR Selectivity Analysis of small molecule inhibitors of PEST using pCAP in a fluorescence assay. [Related pubchem assays (depositor defined):AID1779, AID1784, AID2135].
Tyrosine-protein phosphatase non-receptor type 12, sequence (Q05209 whole entry): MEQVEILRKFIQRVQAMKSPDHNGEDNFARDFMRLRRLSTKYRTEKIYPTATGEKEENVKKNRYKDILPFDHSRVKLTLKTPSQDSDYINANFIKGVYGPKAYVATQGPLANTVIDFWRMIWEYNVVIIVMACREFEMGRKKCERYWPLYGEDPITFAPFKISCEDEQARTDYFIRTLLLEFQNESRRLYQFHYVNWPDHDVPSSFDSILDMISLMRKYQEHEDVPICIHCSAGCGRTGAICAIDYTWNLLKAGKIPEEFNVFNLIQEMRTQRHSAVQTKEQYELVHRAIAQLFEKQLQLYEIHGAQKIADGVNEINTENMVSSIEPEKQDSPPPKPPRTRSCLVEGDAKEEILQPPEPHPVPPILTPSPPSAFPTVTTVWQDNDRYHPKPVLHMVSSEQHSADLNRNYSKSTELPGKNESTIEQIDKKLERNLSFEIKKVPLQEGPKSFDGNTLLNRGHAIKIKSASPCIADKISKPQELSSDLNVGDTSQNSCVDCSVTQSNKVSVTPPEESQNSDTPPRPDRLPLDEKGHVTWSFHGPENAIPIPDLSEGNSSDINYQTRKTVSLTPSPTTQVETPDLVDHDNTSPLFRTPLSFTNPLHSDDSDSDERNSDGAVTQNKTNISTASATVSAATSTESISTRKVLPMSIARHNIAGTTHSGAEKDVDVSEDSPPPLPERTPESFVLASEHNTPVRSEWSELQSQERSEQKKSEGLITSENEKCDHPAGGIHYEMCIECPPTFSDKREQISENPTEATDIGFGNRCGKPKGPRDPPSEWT
Assay [20] deals with T1, Tyrosine-protein phosphatase non-receptor type 7. As to the kind of experiment: inhibition of hematopoietic tyrosine phosphatase HePTP – biochemical, set 2, SAR follow-up (AID 449736).

Activity calls are given as the source filed them.

T5 sequence (Q9HC97 whole entry): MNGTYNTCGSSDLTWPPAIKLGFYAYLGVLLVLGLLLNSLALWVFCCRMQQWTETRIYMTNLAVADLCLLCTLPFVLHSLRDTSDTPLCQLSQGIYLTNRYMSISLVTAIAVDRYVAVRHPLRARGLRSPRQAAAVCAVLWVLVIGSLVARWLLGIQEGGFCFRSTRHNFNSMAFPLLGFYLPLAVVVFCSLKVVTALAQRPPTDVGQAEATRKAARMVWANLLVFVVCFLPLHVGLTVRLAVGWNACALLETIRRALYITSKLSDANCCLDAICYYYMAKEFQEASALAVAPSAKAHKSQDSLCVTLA

By IC50 is commonly meant the concentration needed to halve the response being measured. For orientation: EC50 means the concentration needed to bring the measured effect to its halfway point. On to `COc1ccccc1/C=C/C(=O)NC(=S)Nc1ccc(S(=O)(=O)N(C)c2ccccc2)cc1`, for which the IC50 in assay [1] is > 100 µM (inactive); on Cannabinoid receptor 1 [2], > 32 µM (inactive); at Cannabinoid receptor 2 [3], > 32 µM (inactive); in assay [6] it was > 100 µM (inactive). Further, the EC50 was > 32 µM (inactive) at Cannabinoid receptor 2 [4], < 0.5 µM (active) in assay [5] and 0.114 µM (active) in assay [7].
Take `COc1ccc(-c2nnc(C)c3nn(-c4ccc(C)cc4)cc23)cc1`: the IC50 on Cannabinoid receptor 2 [8] was > 15.6 µM (inactive); on Cannabinoid receptor 1 [9] it was 3.56 µM (active); in [10] it was > 32 µM (inactive); in assay [14], > 32 µM (inactive). The EC50 (in assay [11]; on Cannabinoid receptor 1 [12]; at Cannabinoid receptor 2 [13]) was > 32 µM (inactive) in each case.
`CCOc1cc(/C=C2\SC(=O)N(CC(=O)Nc3ccc(C)cc3)C2=O)cc(Cl)c1OCC(=O)OC`: the IC50 in assay [15] was > 100 µM (inactive); in assay [16], > 100 µM (inactive); in assay [17], 17.9 µM (active); in assay [18], > 100 µM (inactive); in assay [19], > 100 µM (inactive); in [20], 9.66 µM (active). Also, the IC50 in assay [6] is > 100 µM (inactive).
